Measured values published in patent US8575147B2, “Spontaneously dispersible N-benzoyl staurosporine compositions” (Novartis AG, priority 1999, dated 2013).

Test: Solubility of N-benzoyl-staurosporine in water, simulated gastric and intestinal fluids
Format: physicochemical
Method: U.S. Pat. No. 5,093,330 specifically discloses two tablet formulations based on starch/lactose mixtures in the presence of colloidal silica, talc and magnesium stearate (Examples 52 and 53) and a capsule formulation based on talc and colloidal silica (Example 54). […] We have found it to be very lipophilic and practically insoluble in water, in simulated gastric and in intestinal fluids (solubility<0.1 mg/L). In particular this exceptional low solubility of the active substance necessitated development of a non-conventional dosage form.

Compound: CO[C@@H]1[C@H](N(C)C(=O)c2ccccc2)C[C@H]2O[C@]1(C)n1c3ccccc3c3c4c(c5c6ccccc6n2c5c31)C(=O)NC4 [N-benzoyl-staurosporine]
- solubility: < 0.1 µg/mL
